≈ marks a conversion by molar mass, not a printed value. Entries after “also recorded” stand apart in the source; their conditions may differ.
Experiments:
[1] = tested on: METH-impaired PPI in C57/B6 mice; assay: PPI test, methamphetamine-impaired prepulse inhibition; type: in vivo, mouse; settings: for rescue of METH-impaired PPI: mice, compound 10 mg/kg i.p. 15 min before METH 2 mg/kg i.p.
Method: All animal experiments conducted at NTU were approved by the Institutional Animal Care and Use Committee of College of Medicine, National Taiwan University. C57/B6 (8-10 weeks) mice were used for the PPI test and Wistar rats (8-9 weeks) were used in the migraine model. Animals were housed in an animal room with a 12-h light/12-h dark cycle and free access to food and water.
The PPI test was conducted with a PPI apparatus (SR-LAB, San Diego Instruments, San Diego, Calif.) consisting of a startle chamber equipped with various programming acoustic stimulations. After acclimation, the mouse was gently placed in the startle chamber for a 4 min acclimation period with a background noise of 65 dB, which continued throughout the whole PPI test session. One PPI test session consisted of 4 types of startle trials, including the trial with the startle pulse (115 dB) alone (PULSEALONE; 115 dB, 20 ms), two trials with the startle pulse paired with 71 and 77 dB prepulses, respectively (PREPULSE+PULSE; 71 dB+115 dB and 77 dB+115 dB), and the trial without stimulus (NOSTIM; background 65 dB only). A test session started and ended, respectively, with four NOSTIM trials and four PULSEALONE trials. In between, each of the four types of trials was presented 14 times randomly, that is, 56 trials were given in a test session. The intertrial interval was given randomly from 5 to 20 s. In the PREPULSE+PULSE trial, a 71 or 77 dB prepulse was given 120 ms before the 115 dBpulse. The magnitude of PPI (PPI %) was determined, after summarizing the startle responses in PULSEALONE and PREPULSE+PULSE trials, according to the equation (PULSEALON−PREPULSE+PULSE)/PULSEALONE×100%. The tested compound or vehicle was given to the animal for 15 min, followed by methamphetamine (2 mg/kg). The PPI test was conducted 10 min after injection of methamphetamine. Data were expressed as the mean±S.E.M. Statistical comparisons among groups were analyzed by ANOVA with Tukey post hoc test, and differences between groups were analyzed by Student's t-test. Two-way ANOVA with Bonferroni's post hoc test was used to analyze differences in the time courses of locomotor activity among groups. Differences were considered significant if P<0.05.
Methamphetamine and apomorphine were dissolved in normal saline for i.p. And s.c. Injections, respectively. Tested compounds and haloperidol, when given by i.p. Injection, were dissolved in a vehicle containing 20% dmso, 20% Cremophor® el (polyoxyethylene castor, sigma-aldrich) and 60% normal saline. Furosemide was dissolved (20 nmole/μL) in dimethylsulfoxide for intra-cerebellar microinjection the i.p. or s.c. Injection volume was 10 mL/kg.

[2] = Solubility of compounds in DI water; type: physicochemical; settings: thermodynamic from solid; 2 mg in 2 mL DI water, sonicated at 60° C. for 2 hours, cooled to room temperature, filtered
Method: The solubility of the compounds was examined by sonicating 2 mg of each respective compound in 2 mL of DI water at 60° C. for 2 hours. Solutions were cooled to room temperature and then filtered using a syringe filter. The resultant solutions were injected into a mass spectrometer using a SIM method, calibrated to the respective retention times and mass units of each compound. Calibration curves using standard solutions (5 data points) of each compound dissolved in methanol were used to calculate the unknown aqueous concentrations of each compound.

HEPG2 cell line = assay: Cytotoxicity study, CellTiter-Glo cell viability; type: cell-based, Human; settings: HEPG2, 48 hours incubation
Method: Reagents and Instrumentation: Human liver hepatocellular carcinoma (HEPG2) cell line was purchased (ATCC) and cultured in 75 cm2 flasks (CellStar). Cells were grown in DMEM/High Glucose (Hyclone, #SH3024301) media to which non-essential amino acids (Hyclone, #SH30238.01), 10 mM HEPES (Hyclone, #SH302237.01), 5×106 units of penicillin and streptomycin (Hyclone, #SV30010), and 10% of heat inactivated fetal bovine serum (Gibco, #10082147) were added. Cells were harvested using 0.05% Trypsin (Hyclone, #SH3023601), which disrupts the cell monolayer and proteolytically cleaves the bonds between the cells and flask. The cell viability assay was evaluated using CellTiter-Glo™ Luminescent Cell Viability Assay Kit (Promega, Madison, Wis.) which contains luciferase and all its substrate except ATP. The controls for the cytotoxicity assay used were (E)-10-(bromotriphenylphosphoranyl)decyl 4-(4-(tert-butyl)phenyl)-4-oxobut-2-enoate (400 μM in DMSO, positive control) and DMSO (negative control). Cell culture was performed in a Baker Company Class II Biological Safety Cabinet. All luminescence readings were performed on a Tecan Infinite M1000 plate reader. Small volume transfers were performed on the Tecan Freedom EVO liquid handling system with a 100 nL pin tool transfer (V&P Scientific). Serial dilutions were done in 96-well polypropylene plates (Corning, #3365) and assays were conducted in 384-well white optical bottom plates.
Luminescence-Based VDR-Mediated Transcription Assay Protocol: After 48 hours of incubation at 37 °C with 5% CO2, the cells were harvested with 4 mL of 0.05% Trypsin, added to 10 mL of the assay buffer, DMEM/High Modified buffer without phenol red, and spun down for 3 minutes at 1000 rpm. The media was removed and cells were resuspended in the DMEM assay media. To each well, 40 μL of cells were added to yield a final concentration of 15,000 cells per well. The plates were then spun down for 2 minutes at 1000 rpm. After 2 hours, plated cells were treated with 100 nL×4 of small molecules and controls which were added using the pin tool. After 48 hours of incubation at 37 °C with 5% CO2, 20 μL of Cell Titer-Glo™ Luminescence Assay Kit (cytotoxicity assay) were added and luminescence was read. Controls were measured within each plate to determine the z′ factor (Equation 1) and to enable data normalization. Three independent experiments were performed in quadruplicate and data was analyzed using nonlinear regression with variable slope (GraphPrism, Equation 2). The luminescence intensity of control (untreated) cells was taken as 100% viability, and the relative cell viability compared to control was calculated. Data are presented as the means±SEM of a series of three experiments.

mice, motor coordination = assay: Rotarod test; type: in vivo, mouse; settings: 3 mg/kg, 15 min after treatment
Method: The motor coordinating activity of the mouse was measured by its performance on a rotarod in the sdi rotor-rodtm system (San Diego Instruments, San Diego, Calif.). The mouse was trained four times a day for 3 days until it could stay on the rotating drum at a rotating speed of 24 rpm for at least 120 sec. Then, the mouse was subjecting to the rotarod test at the rotating speed accelerating gradually from 0 to 30 rpm, and the latency to fall from the rotating drum was recorded. The cut-off time for the latency to fall was 300 sec. Animals were treated with the tested drug or vehicle for 15 min before receiving the test.

Compound | rescue of METH-impaired PPI [1] | solubility at 2 h [2] | toxicity at 400 μM (HEPG2 cell line) | further results
COc1ccc(-n2nc3c4ccc(Br)cc4[nH]cc-3c2=O)cc1 [LAU 463, 7-Bromo-2-(4-methoxyphenyl)-2,5-dihydro-3H-pyrazolo[4,3-c]quinolin-3-one] | effective; also recorded: comparable rescue effect as Compound 6 |  |  | 
[2H]C([2H])([2H])Oc1ccc(-n2nc3c4ccc(OC)cc4[nH]cc-3c2=O)cc1 [DK-I-56-1, 7-Methoxy-2-(4-methoxy-d3-phenyl)-2,5-dihydro-3H-pyrazolo[4,3-c]quinolin-3-one] | effective | 11.4 µg/mL (≈ 35.1 µM) | non-toxic | 
COc1cccc(-n2nc3c4cc(Cl)ccc4[nH]cc-3c2=O)c1 [LAU 159, 8-Chloro-2-(3-methoxyphenyl)-2,5-dihydro-3H-pyrazolo[4,3-c]quinolin-3-one] | effective; also recorded: comparable rescue effect as Compound 6 |  |  | 
[2H]C([2H])([2H])Oc1ccc2c3nn(-c4ccc(OC)nc4)c(=O)c-3c[nH]c2c1 [DK-I-86-1, 7-Methoxy-d3-2-(6-methoxypyridin-3-yl)-2,5-dihydro-3H-pyrazolo[4,3-c]quinolin-3-one] |  | 211 µg/mL (≈ 649 µM) | non-toxic | 
COc1ccc(-n2nc3c4ccc(OC)cc4[nH]cc-3c2=O)cc1 [Compound 6, 7-Methoxy-2-(4-methoxyphenyl)-2,5-dihydro-3H-pyrazolo[4,3-c]quinolin-3-one] | effectively rescued |  |  | effect of intra-cerebellar furosemide on the rescue of PPI ([1]; furosemide 10 nmol intra-cerebellar microinjection): prevented; rescue of METH-impaired PPI ([1]; listed as C6): significantly rescued; rescue of METH-impaired PPI ([1]; listed as compound 6): effective; also recorded: significantly rescued; motor coordination in the rotarod test (mice, motor coordination): did not affect

Reference: US10865203B2, “Ligands selective to alpha 6 subunit-containing GABAA receptors and their methods of use” (UWM Research Foundation, Inc., priority 2015, dated 2020)
